Assay results published in patent US20120269830A1, “CONJUGATES WITH IMPROVED PHARMACOKINETIC PROPERTIES” (priority 2009, published 2012).

Experiments:
[1] = biological target: Dipeptidyl protease IV (DPP-IV) (Homo sapiens, UniProt P27487); details: cited from earlier work
[2] = test system: db/db mice; experiment: Reduction of fasting blood glucose in db/db mice; assay type: in vivo; details: intravenous; for blood glucose at 4 and 8 hours post treatment: food access after 4 hours
Experimental: Synthetic GLP-1 peptide and recombinant GLP-1 Surrobody fusions were evaluated for their ability to lower plasma glucose in db/db mice. To reduce the effects of in vivo DPPIV proteolysis during the time course of the study GLP-1 both synthetic and recombinant GLP-1 functionally null Surrobodies used a GLP-1 variant containing a serine substitution for alanine at position 8 that reduces DPPIV inactivation. 8 db/db mice were used per group: Control SgG (3 mg/kg) (functionally null SgG that lacks the GLP-1 conjugate); GLP-1 peptide (0.8 mg/kg); GLP-1 SgG (1 mg/kg); and GLP-1 (3 mg/kg). Essentially db/db mice were matched by weight and relative blood glucose levels. Next, the subjects were injected intravenously with test article and isolated with access to water, but not food. Glucose levels were monitored by handheld glucometer after 1 hour and 4 hours. After 4 hours the mice were allowed free access to both food and water. An additional reading was made at 8 hours following drug administration.

Chain of Dipeptidyl protease IV (DPP-IV) (P27487 whole entry): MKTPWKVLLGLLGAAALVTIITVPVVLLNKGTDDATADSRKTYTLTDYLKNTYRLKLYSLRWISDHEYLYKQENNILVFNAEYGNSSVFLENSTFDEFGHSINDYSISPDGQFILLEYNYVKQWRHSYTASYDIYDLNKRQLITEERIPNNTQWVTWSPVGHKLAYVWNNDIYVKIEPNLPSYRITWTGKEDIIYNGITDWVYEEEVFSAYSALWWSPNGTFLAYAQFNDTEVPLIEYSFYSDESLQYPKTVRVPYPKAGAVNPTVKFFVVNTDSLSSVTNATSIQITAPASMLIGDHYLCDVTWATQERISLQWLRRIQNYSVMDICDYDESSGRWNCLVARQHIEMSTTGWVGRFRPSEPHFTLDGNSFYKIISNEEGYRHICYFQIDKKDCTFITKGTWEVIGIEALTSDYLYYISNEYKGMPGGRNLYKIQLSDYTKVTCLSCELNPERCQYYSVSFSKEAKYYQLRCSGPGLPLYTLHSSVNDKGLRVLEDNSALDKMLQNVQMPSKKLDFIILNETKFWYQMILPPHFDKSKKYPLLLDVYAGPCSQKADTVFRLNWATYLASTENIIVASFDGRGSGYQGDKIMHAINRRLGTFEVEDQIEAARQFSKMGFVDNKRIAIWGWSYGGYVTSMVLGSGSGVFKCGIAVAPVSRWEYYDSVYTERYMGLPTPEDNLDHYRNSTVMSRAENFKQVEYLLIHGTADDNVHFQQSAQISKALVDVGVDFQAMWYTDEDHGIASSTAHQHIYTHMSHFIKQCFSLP

HAEGTFTSDVSSYLEGQAAKEFIAWLVKGRG [GLP-1]
time to inactivation by DPP-IV [1]: ≤ 2 min | blood glucose reduction overall, through 8 hours ([2]; 1 and 3 mg/kg, FIG. 17): acutely reduces blood glucose through 8 hours

HSEGTFTSDVSSYLEGQAAKEFIAWLVKGRG [GLP-1 peptide, GLP-1 receptor agonist with serine for alanine substitution at position 8]
resistance to proteolytic inactivation by DPP-IV [1]: markedly resistant | blood glucose after 1 hour ([2]; fasted, GLP-1 SgG 1 and 3 mg/kg, GLP-1 peptide 0.8 mg/kg): considerable blood glucose reduction | blood glucose at 4 and 8 hours post treatment ([2]; GLP-1 SgG 1 and 3 mg/kg, GLP-1 peptide 0.8 mg/kg): started to approach levels of control Surrobody | blood glucose at 4 and 8 hours post treatment ([2]; GLP-1 SgG 1 and 3 mg/kg, GLP-1 peptide 0.8 mg/kg, listed as GLP-1 peptide control): unable to maintain the same degree of blood glucose levels
